Data on four compounds can be found in PMC4364393 (Journal of medicinal chemistry, 2015).

Converted amounts (≈) assume the structure as drawn. Where two headings read alike, the source gives them in different places.

Assay [1] concerns E. faecalis (Van B) ATCC 51299. Nature of the assay: MIC, E. faecalis. The class given is cell-based, Enterococcus faecalis.
Assay [2] relates to E. faecalis (Van S) ATCC 29212. Put plainly: MIC, E. faecalis. It counts as cell-based. Particulars: Enterococcus faecalis, ATCC29212, read-out: MIC, E. faecalis (Van S) ATCC 29212.
For assay [3], the system named is E. faecalis (Van A) MMX 486. Nature of the assay: MIC, E. faecalis. It counts as cell-based. Conditions: Enterococcus faecalis, read-out: MIC, E. faecalis (Van A) MMX 486.
Assay [4] concerns Van A phenotype VRE strain. Particulars: cited from earlier work.

With “G4-decanoyl vancomycin derivative [Compound 9b]”, the “times more active against a VRE strain (Van B phenotype)” value in assay [1] (fold improvement of MIC, compared with vancomycin) is given as 64 times. As for `CC(=O)NC[C@H]1CN(c2ccc(N3CCOCC3)c(F)c2)C(=O)O1` [Linezolid, linezolid], the MIC in assay [2] came out at 2 µg/mL (≈ 5.93 µM); in assay [1] (Enterococcus faecalis, ATCC51299, read-out: MIC, E. faecalis (Van B) ATCC 51299), 2 µg/mL (≈ 5.93 µM); in assay [3], 2 µg/mL (≈ 5.93 µM). As for teicoplanin A2-2, the “MIC against Van A phenotype VRE strain” value in assay [4] was 128 µg/mL. For `CN[C@H](CC(C)C)C(=O)N[C@H]1C(=O)N[C@@H](CC(N)=O)C(=O)N[C@H]2C(=O)N[C@H]3C(=O)N[C@H](C(=O)N[C@H](C(=O)O)c4cc(O)cc(O)c4-c4cc3ccc4O)[C@H](O)c3ccc(c(Cl)c3)Oc3cc2cc(c3O[C@@H]2O[C@H](CO)[C@@H](O)[C@H](O)[C@H]2O[C@H]2C[C@](C)(N)[C@H](O)[C@H](C)O2)Oc2ccc(cc2Cl)[C@H]1O` [Vancomycin, vancomycin], the “MIC against Van A phenotype VRE strain” value in assay [4] (based on a literature report) is 512 µg/mL (≈ 353 µM).
